By IC50 is commonly meant the concentration needed to halve the response being measured.

These results are taken from PubChem BioAssay AID651782 (The Scripps Research Institute Molecular Screening Center, 2012).

For the assay, the target named is Nuclear receptor coactivator 2 (Homo sapiens) (UniProt Q15596). Nature of the assay: SRC2 (NCOA2) coactivator inhibitors, late-stage follow-up, selectivity assay for SRC3 inhibitor project, cell-based, HEK293, GAL4-SRC2 luciferase, powder samples (AID 651782). Particulars: HEK293 GAL4-SRC2 luciferase reporter, luminescence. A general note: A reporter such as luciferase makes a cellular process visible.
Chain of Nuclear receptor coactivator 2 (Homo sapiens) (Q15596 whole entry, looked up, the tested form may be a part): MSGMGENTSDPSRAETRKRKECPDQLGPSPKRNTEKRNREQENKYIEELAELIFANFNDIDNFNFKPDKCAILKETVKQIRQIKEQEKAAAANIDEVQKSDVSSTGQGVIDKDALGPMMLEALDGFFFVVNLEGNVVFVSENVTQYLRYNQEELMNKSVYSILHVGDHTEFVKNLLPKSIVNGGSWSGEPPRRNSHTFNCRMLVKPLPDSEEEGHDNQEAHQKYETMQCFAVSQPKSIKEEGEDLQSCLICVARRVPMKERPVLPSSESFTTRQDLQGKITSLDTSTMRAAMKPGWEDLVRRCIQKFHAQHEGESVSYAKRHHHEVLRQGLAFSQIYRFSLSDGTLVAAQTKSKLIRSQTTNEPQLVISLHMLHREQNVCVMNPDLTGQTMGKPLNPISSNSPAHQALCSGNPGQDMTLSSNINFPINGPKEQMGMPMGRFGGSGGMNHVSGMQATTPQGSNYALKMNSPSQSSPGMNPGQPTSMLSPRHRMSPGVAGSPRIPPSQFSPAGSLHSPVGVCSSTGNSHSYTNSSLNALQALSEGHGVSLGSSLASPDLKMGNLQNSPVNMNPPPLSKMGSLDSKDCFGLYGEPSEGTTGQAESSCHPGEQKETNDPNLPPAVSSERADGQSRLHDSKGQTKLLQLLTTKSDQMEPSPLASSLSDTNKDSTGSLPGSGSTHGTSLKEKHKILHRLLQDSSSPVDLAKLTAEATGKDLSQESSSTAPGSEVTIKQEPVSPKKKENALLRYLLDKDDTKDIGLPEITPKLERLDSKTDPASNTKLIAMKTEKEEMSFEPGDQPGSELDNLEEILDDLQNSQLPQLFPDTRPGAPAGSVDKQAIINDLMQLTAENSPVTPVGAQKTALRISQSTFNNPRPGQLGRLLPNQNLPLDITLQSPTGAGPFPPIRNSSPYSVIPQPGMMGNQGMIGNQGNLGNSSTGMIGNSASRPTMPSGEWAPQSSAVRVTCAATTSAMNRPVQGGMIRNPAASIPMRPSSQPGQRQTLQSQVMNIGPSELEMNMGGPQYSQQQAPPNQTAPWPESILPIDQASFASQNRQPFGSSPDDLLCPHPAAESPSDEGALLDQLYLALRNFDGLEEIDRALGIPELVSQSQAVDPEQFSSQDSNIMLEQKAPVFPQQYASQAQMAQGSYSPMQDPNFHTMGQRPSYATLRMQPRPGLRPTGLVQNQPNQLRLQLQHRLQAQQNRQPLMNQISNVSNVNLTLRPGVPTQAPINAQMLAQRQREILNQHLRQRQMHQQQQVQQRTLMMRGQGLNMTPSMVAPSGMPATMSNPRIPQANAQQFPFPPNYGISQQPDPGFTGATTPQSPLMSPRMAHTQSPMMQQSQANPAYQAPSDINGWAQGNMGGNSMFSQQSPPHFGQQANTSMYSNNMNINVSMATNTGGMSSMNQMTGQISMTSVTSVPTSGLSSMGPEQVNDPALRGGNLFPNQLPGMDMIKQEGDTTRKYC

Molecules are shown by their SMILES. Activity calls are given as the source filed them.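 How the source made its calls: active means IC50 of 10 µM or lower; inactive means IC50 above 10 µM.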

In the case of `OCCN1CCN(C(=S)c2ccc(-c3ccccc3)cc2)CC1`, the IC50 is 4.68 µM. `O=C(Nc1ccccc1Oc1ccccc1)c1cc([N+](=O)[O-])ccc1Cl`: the IC50 was 5.4 µM. Then `CC(C)(C)c1ccc(-c2noc(CCC(=O)Nc3cccnc3)n2)cc1`, with > 35.9 µM (inactive); and `Cc1ccc(OCC(=O)c2cc(C)n(-c3ccccc3)c2C)c([N+](=O)[O-])n1`, with “inactive”.

As for `O=C(COC(=O)c1ccc[nH]c1=O)Nc1ccc(N2CCCCC2)cc1`, the IC50 is > 35.9 µM (inactive). For `CCCNC(=O)c1nnsc1S(=O)(=O)c1ccc(Cl)cc1` the value was “inactive”; for `CN1C(=O)C2(C(C#N)=C(N)N(c3cc(Cl)cc(Cl)c3)C3=C2C(=O)CC(C)(C)C3)c2ccccc21` (stereo not drawn), “inactive”. As for `CN1C(=O)C2(C(C#N)=C(N)N(c3cc(Cl)cc(Cl)c3)C3=C2C(=O)CCC3)c2ccccc21` (stereo not drawn), the IC50 is > 35.9 µM (inactive).
